{"source": "patent US20230092389A1", "about": "“UNIT DOSES, AEROSOLS, KITS, AND METHODS FOR TREATING HEART CONDITIONS BY PULMONARY ADMINISTRATION” (InCarda Therapeutics, Inc., priority 2017, published 2023)", "key": {"[1]": {"details": "in vivo, iv, 2 mg/kg; cited from earlier work"}, "[2]": {"details": "beagle, dog, in vivo", "excerpt": "After induction of AF, animals were first given vehicle (0.9% NaCl, volume-matched) via IT installation."}, "[3]": {"details": "in vivo", "excerpt": "3 cohorts of subjects, in total 34 healthy adult volunteers, were recruited for Part A study.\nPart B was an open label non-randomized crossover in a cohort of 6 evaluable healthy adult volunteers."}, "[4]": {"test_system": "healthy volunteers", "experiment": "Phase 1 (FLE-001) pulmonary safety: spirometry, SpO2, auscultation, chest x-ray", "assay_type": "in vivo, human", "method": "Pulmonary safety was assessed by performing lung spirometry tests and measuring peripheral oxygen saturation (SpO2%) prior to dosing and at various times after completion of the inhalation. Lung spirometry tests evaluated all lung function parameters, including forced vital capacity (FVC), forced expiratory volume in 1 second (FEV1), peak expiratory flow (PEF), and forced expiratory flow at 25% and 75% intervals (FEF25-75). Auscultation and respiration rate were also measured prior to dosing and at various times after inhalation. Chest x-rays were performed on subjects before and after flecainide inhalation."}, "[5]": {"details": "both, human, inhaled or intranasal, 20 mg"}, "[6]": {"details": "both, human, inhaled or intranasal, 40 mg"}, "[7]": {"details": "both, human, inhaled or intranasal, 60 mg"}, "[8]": {"details": "Cohort 1, 20 mg eTLD, 3 hours Post-dose"}, "[9]": {"details": "Cohort 1, 20 mg eTLD, 12 hours Pre-dose"}, "[10]": {"details": "Cohort 1, 20 mg eTLD, 24 hours Post-dose"}, "[11]": {"details": "Cohort 2, 40 mg eTLD, 3 hours Post-dose"}, "[12]": {"details": "Cohort 2, 40 mg eTLD, 12 hours Pre-dose"}, "[13]": {"details": "Cohort 2, 40 mg eTLD, 24 hours Post-dose"}}, "note": "Where two headings read alike, the source gives them in different places."}
{"compound": "O=C(NCC1CCCCN1)c1cc(OCC(F)(F)F)ccc1OCC(F)(F)F", "note": "(stereo not shown) [flecainide];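 for Cmax of the two excluded subjects: measured in healthy adult volunteers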;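 for Dist. t1/2α: measured in healthy adult volunteers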;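 for Elim. t1/2β: measured in healthy adult volunteers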;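 for Tmax (min after EOI): measured in healthy adult volunteers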;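 for Tmax in excluded subjects: measured in healthy adult volunteers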;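 for concentration-time profile curves, IV normalized to 30 mg vs inhaled 30 mg eTLD: measured in healthy adult volunteers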;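 for dose dependence of Cmax and AUCLast: measured in healthy adult volunteers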;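 for dose dependence of distribution phase and elimination half-life: measured in healthy adult volunteers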;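 for dose proportionality of venous plasma concentrations: measured in healthy adult volunteers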;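 for elimination t1/2β: measured in healthy adult volunteers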;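 for plasma concentration in subjects with near-equal ΔQRS (12.0 to 16 msec): measured in healthy adult volunteers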;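 for venous plasma concentration-time curves, inhaled vs IV: measured in healthy adult volunteers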", "values": [{"measurement": "Dist. t1/2", "setting": "[1]", "result": "2.6 ± 0.7", "unit": "min"}, {"measurement": "Elim. t1/2", "setting": "[1]", "result": "9.3 ± 0.1", "unit": "h"}, {"measurement": "Plasma Concentration LV at time of conversion, Mean ± SEM", "setting": "[2]", "result": "1139 ± 380", "unit": "ng/mL"}, {"measurement": "Plasma Concentration Venous at time of conversion, Mean ± SEM", "setting": "[2]", "result": "611 ± 213", "unit": "ng/mL"}, {"measurement": "plasma concentrations transiently higher in LV than in PA (summary)", "setting": "[2]", "result": "~2.5", "unit": "fold"}, {"measurement": "plasma levels higher in LV than in systemic venous circulation", "setting": "[2]", "result": "~2", "unit": "fold"}, {"measurement": "plasma concentrations transiently higher in PA than in LV (summary)", "setting": "[2]; iv", "result": "~3.5", "unit": "fold"}, {"measurement": "time after administration when LV and PA concentrations were nearly equal", "setting": "[2]; iv", "result": "4 to 10", "unit": "min"}, {"measurement": "elimination t1/2β", "setting": "[3]; both, human", "result": "9 to 12", "unit": "h"}, {"measurement": "Cmax of the two excluded subjects", "setting": "[3]; both, human, 40 mg", "result": 43.5, "unit": "ng/mL"}, {"measurement": "Cmax of the two excluded subjects", "setting": "[3]; both, human, 60 mg", "result": 51.3, "unit": "ng/mL"}, {"measurement": "Tmax in excluded subjects", "setting": "[3]; both, human, 60 mg", "result": "greater than 15 minutes"}, {"measurement": "Dist. t1/2α", "setting": "[3]; [5]", "result": "3.86 (34) min"}, {"measurement": "Elim. t1/2β", "setting": "[3]; [5]", "result": "9.87 (25) hours"}, {"measurement": "Dist. t1/2α", "setting": "[3]; [6]", "result": "4.19 (39) min"}, {"measurement": "Elim. t1/2β", "setting": "[3]; [6]", "result": "9.0 (24) hours"}, {"measurement": "Dist. t1/2α", "setting": "[3]; [7]", "result": "3.47 (17) min"}, {"measurement": "Elim. t1/2β", "setting": "[3]; [7]", "result": "12.0 (14) hours"}, {"measurement": "dose dependence of Cmax and AUCLast", "setting": "[3]; human", "result": "dose-dependent"}, {"measurement": "dose dependence of distribution phase and elimination half-life", "setting": "[3]; human", "result": "independent of the doses"}, {"measurement": "plasma concentration in subjects with near-equal ΔQRS (12.0 to 16 msec)", "setting": "[3]; human", "result": "85 ± 40.3", "unit": "ng/mL"}, {"measurement": "Tmax (min after EOI)", "setting": "[3]; human, inhaled or intranasal, 30 mg", "result": "0.5 (0, 1) min"}, {"measurement": "plasma concentration in subjects with near-equal ΔQRS (12.0 to 16 msec)", "setting": "[3]; human, iv", "result": "222 ± 23", "unit": "ng/mL"}, {"measurement": "Tmax (min after EOI)", "setting": "[3]; human, iv, 2 mg/kg", "result": "1 (0, 60) min"}, {"measurement": "dose proportionality of venous plasma concentrations", "setting": "[3]", "result": "near dose proportionality"}, {"measurement": "venous plasma concentration-time curves, inhaled vs IV", "setting": "[3]; 2 mg/kg", "result": "similar"}, {"measurement": "concentration-time profile curves, IV normalized to 30 mg vs inhaled 30 mg eTLD", "setting": "[3]; iv", "result": "near-identical"}, {"measurement": "Oxygen Saturation (SpO2%), mean", "setting": "[4]; Cohort 1, 20 mg eTLD, 15 min Postdose", "result": 97, "unit": "%"}, {"measurement": "Oxygen Saturation (SpO2%), mean", "setting": "[4]; Cohort 1, 20 mg eTLD, 30 min Postdose", "result": 97, "unit": "%"}, {"measurement": "Oxygen Saturation (SpO2%), mean", "setting": "[4]; Cohort 1, 20 mg eTLD, 45 min Postdose", "result": 97, "unit": "%"}, {"measurement": "Oxygen Saturation (SpO2%), mean", "setting": "[4]; Cohort 1, 20 mg eTLD, 60 min Postdose", "result": 97, "unit": "%"}, {"measurement": "Oxygen Saturation (SpO2%), mean", "setting": "[4]; Cohort 1, 20 mg eTLD, 75 min Postdose", "result": 98, "unit": "%"}, {"measurement": "Oxygen Saturation (SpO2%), mean", "setting": "[4]; Cohort 1, 20 mg eTLD, 90 min Postdose", "result": 98, "unit": "%"}, {"measurement": "Oxygen Saturation (SpO2%), mean", "setting": "[4]; Cohort 1, 20 mg eTLD, 105 min Postdose", "result": 97, "unit": "%"}, {"measurement": "Oxygen Saturation (SpO2%), mean", "setting": "[4]; Cohort 1, 20 mg eTLD, 120 min Postdose", "result": 98, "unit": "%"}, {"measurement": "FEF25-75, mean", "setting": "[4]; [8]", "result": 5.48, "unit": "L/s"}, {"measurement": "FEV1, mean", "setting": "[4]; [8]", "result": 5.27, "unit": "L"}, {"measurement": "FVC, mean", "setting": "[4]; [8]", "result": 6.42, "unit": "L"}, {"measurement": "PEF, mean", "setting": "[4]; [8]", "result": 10.87, "unit": "L/s"}, {"measurement": "FEF25-75, mean", "setting": "[4]; [9]", "result": 5.38, "unit": "L/s"}, {"measurement": "FEV1, mean", "setting": "[4]; [9]", "result": 5.26, "unit": "L"}, {"measurement": "FVC, mean", "setting": "[4]; [9]", "result": 6.02, "unit": "L"}, {"measurement": "PEF, mean", "setting": "[4]; [9]", "result": 11.30, "unit": "L/s"}, {"measurement": "FEF25-75, mean", "setting": "[4]; [10]", "result": 5.40, "unit": "L/s"}, {"measurement": "FEV1, mean", "setting": "[4]; [10]", "result": 5.18, "unit": "L"}, {"measurement": "FVC, mean", "setting": "[4]; [10]", "result": 6.36, "unit": "L"}, {"measurement": "PEF, mean", "setting": "[4]; [10]", "result": 11.09, "unit": "L/s"}, {"measurement": "Oxygen Saturation (SpO2%), mean", "setting": "[4]; Cohort 1, 20 mg eTLD, Predose", "result": 98, "unit": "%"}, {"measurement": "Oxygen Saturation (SpO2%), mean", "setting": "[4]; Cohort 2, 40 mg eTLD, 15 min Postdose", "result": 96, "unit": "%"}, {"measurement": "Oxygen Saturation (SpO2%), mean", "setting": "[4]; Cohort 2, 40 mg eTLD, 30 min Postdose", "result": 97, "unit": "%"}, {"measurement": "Oxygen Saturation (SpO2%), mean", "setting": "[4]; Cohort 2, 40 mg eTLD, 45 min Postdose", "result": 96, "unit": "%"}, {"measurement": "Oxygen Saturation (SpO2%), mean", "setting": "[4]; Cohort 2, 40 mg eTLD, 60 min Postdose", "result": 96, "unit": "%"}, {"measurement": "Oxygen Saturation (SpO2%), mean", "setting": "[4]; Cohort 2, 40 mg eTLD, 75 min Postdose", "result": 97, "unit": "%"}, {"measurement": "Oxygen Saturation (SpO2%), mean", "setting": "[4]; Cohort 2, 40 mg eTLD, 90 min Postdose", "result": 97, "unit": "%"}, {"measurement": "Oxygen Saturation (SpO2%), mean", "setting": "[4]; Cohort 2, 40 mg eTLD, 105 min Postdose", "result": 97, "unit": "%"}, {"measurement": "Oxygen Saturation (SpO2%), mean", "setting": "[4]; Cohort 2, 40 mg eTLD, 120 min Postdose", "result": 97, "unit": "%"}, {"measurement": "FEF25-75, mean", "setting": "[4]; [11]", "result": 4.34, "unit": "L/s"}, {"measurement": "FEV1, mean", "setting": "[4]; [11]", "result": 4.96, "unit": "L"}, {"measurement": "FVC, mean", "setting": "[4]; [11]", "result": 6.19, "unit": "L"}, {"measurement": "PEF, mean", "setting": "[4]; [11]", "result": 10.66, "unit": "L/s"}, {"measurement": "FEF25-75, mean", "setting": "[4]; [12]", "result": 5.00, "unit": "L/s"}, {"measurement": "FEV1, mean", "setting": "[4]; [12]", "result": 5.04, "unit": "L"}, {"measurement": "FVC, mean", "setting": "[4]; [12]", "result": 6.18, "unit": "L"}, {"measurement": "PEF, mean", "setting": "[4]; [12]", "result": 10.83, "unit": "L/s"}, {"measurement": "FEF25-75, mean", "setting": "[4]; [13]", "result": 4.80, "unit": "L/s"}, {"measurement": "FEV1, mean", "setting": "[4]; [13]", "result": 5.08, "unit": "L"}, {"measurement": "FVC, mean", "setting": "[4]; [13]", "result": 6.39, "unit": "L"}, {"measurement": "PEF, mean", "setting": "[4]; [13]", "result": 11.14, "unit": "L/s"}, {"measurement": "Oxygen Saturation (SpO2%), mean", "setting": "[4]; Cohort 2, 40 mg eTLD, Predose", "result": 97, "unit": "%"}, {"measurement": "respiratory rate", "setting": "[4]; Cohorts 1, 2, 3, 5", "result": "minimal or no changes"}, {"measurement": "standard lung spirometry measurements and peripheral O2 saturation", "setting": "[4]; Cohorts 1, 2, 3, 5", "result": "normal before and after"}, {"measurement": "SpO2 pre-dose and post-dose values", "setting": "[4]; Cohorts 1 and 2", "result": "97-98%"}, {"measurement": "lung function parameters (FVC, FEV1, PEF, FEF25-75) pre-dose and post-dose", "setting": "[4]; Cohorts 1 and 2", "result": "within the normal range for the population studied"}, {"measurement": "Auscultation", "setting": "[4]; inhaled 20, 30, 40 mg eTLD", "result": "normal"}, {"measurement": "Chest x-rays", "setting": "[4]; inhaled 20, 30, 40 mg eTLD", "result": "normal and showed no changes"}, {"measurement": "respiration rate", "setting": "[4]; inhaled 20, 30, 40 mg eTLD", "result": "No changes"}]}
